Laboratory results published in patent US20040029847A1 (priority 2003, published 2004).

Key:
hERβ [1] = conditions: relative binding affinity, estradiol = 100; cited from earlier work
hERβ [2] = experiment: Relative binding affinity (RBA) to hERβ, cited from Kuiper et al.; set-up: species or system human; conditions: quotient of RBA to hERβ and hERα
Source text: In this case, it is assumed that ERβ predominates in the rat prostates over ERα, and ERα predominates in rat uteri over ERβ.

[3] = tested on: estrogen receptor preparations from rat prostates; experiment: Competitive binding with 3H-estradiol to estrogen receptor from rat prostate cytosol

Row | ERβ/ERα (hERβ [2]) | Rat prost. ER(RBA) ([3]; rat prostate cytosol, 3H-estradiol as ligand, estradiol = 100) | prost. ER/uterus ER ([3]; ratio of RBA at rat prostate ER to rat uterus ER) | Compound | hERβ RBA* (hERβ [1])
1 | – | – | – | C[C@]12CC[C@@H]3c4ccc(O)cc4CC[C@H]3[C@@H]1C[C@@H](O)[C@@H]2O [Estriol] | 21
2 | 1 | 100 | 1 | Estradiol | 100
